Measurements published in patent US8796268B2, “Heteroaryls and uses thereof” (Millennium Pharmaceuticals, Inc., priority 2010, dated 2014).

How the values were obtained:
Format in all cases: biochemical
Human PI3K gamma = biological target: T1, Human PI3K gamma (Homo sapiens, UniProt P48736); assay: Human PI3K gamma enzyme assay (HTRF); details: concentration not given, b1389 states 1.0 μM for PI3K δ and γ; for inhibition at 1 µM: read-out: p110 gamma Percent Inhibition
T1 construct: His (N); host or cells: SF9 insect cells (baculovirus)
Description: (§1) The catalytic subunits of PI3Ks are cloned into either pDEST8(p110 alpha) or pDEST10(p110beta, p110delta, and p110gamma) as N-terminal His tagged fusion proteins using the Gateway system (Invitrogen, catalog#11804-010 for pDEST8 and 11806-015 for pDEST10). The sequences are verified before recombinant protein expression using the Baculovirus Expression System with Gateway® Technology. The accession numbers for the subunits are as follows: • p110 alpha (GB:U79143) • p110beta (GB: S67334) • p110delta (GB: U86453) • p110gamma (GB: X83368) • The regulatory subunits of PI3Ks are cloned into pDEST8 as un-tagged protein using the Gateway system (Catalog#11804-010). The sequences are verified before recombinant protein expression using the Baculovirus Expression System with Gateway® Technology. The accession numbers for the subunits are as following: • p85 alpha (GB: BC030815) • p101(GB: AB028925) • VPS34 (accession number GB:BC033004) is cloned into pDEST20—Thombin as N-terminal GST tagged fusion proteins using the Gateway system (Invitrogen, catalog#11804-013). The sequences are verified before recombinant protein expression using the Baculovirus Expression System with Gateway® Technology.
(§2) For expression of the p110 complexes, the p85 (MOI of 4) is co-infected with p110 alpha, beta, and delta respectively (1MOI) in SF9 cells and harvested at 60 hours post co-infection. P110 gamma was infected at 1 MOI and harvested at 60 hours post infection.
(§3) For purification, PI3Ks are purified by Ni-NTA Agarose (Qiagen #30250) followed by Mono Q 10/100 GL (Ge Healthcare #17-5167-01). VPS34 is purified by Glutathione Sepharose 4 Fast Flow (GE Healthcare #17-5132-03) followed by HiTrap Q (GE Healthcare #17-1153-01).
(§4) 0.5 uL compounds in DMSO are added to wells of a 384 well microtitre plate (Corning 3575). At room temperature: 10 ul PI3K reaction buffer (50 mM Hepes, 5 mM DTT, 150 mM NaCl, 10 mM beta-glycerophosphate, 10 mM MgCl2, 0.25 mM sodium cholate and 0.001% CHAPS, pH 7.00) containing ATP (25 uM, Promega) is added followed immediately by 10 ul PI3K reaction buffer containing di-C8 P1(4,5)P2 (3.5 uM, CellSignals) and PI3Kalpha (0.4875 nM, Millennium Protein Sciences Group) and the mixture is incubated with shaking at room temperature for 30 minutes. Then 5 ul PI3K stop mix (50 mM Hepes, 5 mM DTT, 150 mM NaCl, 0.01% Tween-20, 15 mM EDTA and 25 nM biotin-PI(3,4,5)P3 (Echelon) is added to quench the reaction followed immediately by addition of 5 ul HTRF detection mix (50 mM Hepes, 5 mM DTT, 150 mM NaCl, 0.01% Tween-20, 40 mM KF, 1.0 nM GST:GRP-1 PH domain (Millennium Protein Sciences Group), 15 nM Streptavidin-XL (CisBio) and 0.375 nM anti-GST Eu++ antibody (CisBio) at pH 7.00). The plates are then incubated for 1 hour at room temperature with shaking and then read on a BMG PheraStar Plus reader.
(§5) 2) Human PI3K beta, delta and gamma isoforms are tested using the procedure described for PI3K alpha above but with the following changes: PI3K beta (5.25 nM), PI3K delta (0.75 nM) and PI3K gamma (5 nM). All isoforms supplied by Millennium Protein Science Group.
(§6) For the assay methods described above, test compound percent inhibition, at various concentrations, is calculated relative to control (DMSO and EDTA) treated samples. Compound concentration versus percent inhibition curves are fitted to generate IC50 values. One skilled in the art will appreciate that the values generated either as percentage inhibition at a single concentration or IC50 values are subject to experimental variation.

Human PI3K beta = biological target: T2, Human PI3K beta (Homo sapiens, UniProt P42338); assay: Human PI3K beta enzyme assay (HTRF); details: concentration not given; b1387 states 1.1 μM for PI3K α and β; read-out: p110 beta Percent Inhibition
T2 construct: His (N); host or cells: SF9 insect cells (baculovirus)
How it was run: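 Compounds were mixed with 25 uM ATP, then with 3.5 uM di-C8 PI(4,5)P2 and His-tagged PI3K isoform (β 5.25 nM, δ 0.75 nM, γ 5 nM) at pH 7.00. After 30 min at room temperature, EDTA stopped the reaction and PIP3 was measured by HTRF over 1 h.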

Human PI3K alpha = biological target: T3, Human PI3K alpha (Homo sapiens, UniProt P42336); assay: Human PI3K alpha enzyme assay (HTRF); details: concentration not given, b1387 states 1.1 μM for PI3K α and β; for inhibition at 1.1 µM: read-out: p110 alpha Percent Inhibition
T3 construct: His (N); host or cells: SF9 insect cells (baculovirus)

Human PI3K delta = biological target: T4, Human PI3K delta (Homo sapiens, UniProt O00329); assay: Human PI3K delta enzyme assay (HTRF); details: concentration not given; b1389 states 1.0 μM for PI3K δ and γ; read-out: p110 delta Percent Inhibition
T4 construct: His (N); host or cells: SF9 insect cells (baculovirus)
Description: as §1, §2, §3, §4, §5, §6

T4 sequence (O00329 whole entry): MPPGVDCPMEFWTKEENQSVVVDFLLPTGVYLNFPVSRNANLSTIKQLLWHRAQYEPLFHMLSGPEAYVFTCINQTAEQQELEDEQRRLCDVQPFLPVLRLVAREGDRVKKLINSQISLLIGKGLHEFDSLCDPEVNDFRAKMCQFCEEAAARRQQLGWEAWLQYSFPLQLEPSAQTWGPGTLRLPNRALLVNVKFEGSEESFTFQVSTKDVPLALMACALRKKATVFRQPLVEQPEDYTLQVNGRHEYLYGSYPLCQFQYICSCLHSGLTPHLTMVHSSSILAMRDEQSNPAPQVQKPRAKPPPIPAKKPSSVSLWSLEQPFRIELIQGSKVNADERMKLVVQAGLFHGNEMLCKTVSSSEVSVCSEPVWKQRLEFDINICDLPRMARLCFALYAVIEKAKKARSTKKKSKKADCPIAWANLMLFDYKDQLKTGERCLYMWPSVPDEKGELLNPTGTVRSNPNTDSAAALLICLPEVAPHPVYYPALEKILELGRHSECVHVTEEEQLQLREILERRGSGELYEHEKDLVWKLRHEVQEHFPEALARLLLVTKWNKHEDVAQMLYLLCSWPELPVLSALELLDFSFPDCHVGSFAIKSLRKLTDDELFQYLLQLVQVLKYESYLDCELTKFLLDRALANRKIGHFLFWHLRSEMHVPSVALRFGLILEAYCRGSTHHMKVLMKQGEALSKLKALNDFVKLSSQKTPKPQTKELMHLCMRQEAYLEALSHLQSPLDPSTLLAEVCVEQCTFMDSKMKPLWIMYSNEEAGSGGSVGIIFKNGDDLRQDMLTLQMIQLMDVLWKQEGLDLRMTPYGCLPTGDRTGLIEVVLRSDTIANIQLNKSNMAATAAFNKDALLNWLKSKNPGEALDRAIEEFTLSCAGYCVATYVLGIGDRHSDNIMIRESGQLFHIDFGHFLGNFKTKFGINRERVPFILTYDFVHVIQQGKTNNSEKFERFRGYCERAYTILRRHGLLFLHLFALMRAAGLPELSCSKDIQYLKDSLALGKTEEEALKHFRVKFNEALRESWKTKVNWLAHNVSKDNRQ
T4 sequence (P27986 whole entry partner): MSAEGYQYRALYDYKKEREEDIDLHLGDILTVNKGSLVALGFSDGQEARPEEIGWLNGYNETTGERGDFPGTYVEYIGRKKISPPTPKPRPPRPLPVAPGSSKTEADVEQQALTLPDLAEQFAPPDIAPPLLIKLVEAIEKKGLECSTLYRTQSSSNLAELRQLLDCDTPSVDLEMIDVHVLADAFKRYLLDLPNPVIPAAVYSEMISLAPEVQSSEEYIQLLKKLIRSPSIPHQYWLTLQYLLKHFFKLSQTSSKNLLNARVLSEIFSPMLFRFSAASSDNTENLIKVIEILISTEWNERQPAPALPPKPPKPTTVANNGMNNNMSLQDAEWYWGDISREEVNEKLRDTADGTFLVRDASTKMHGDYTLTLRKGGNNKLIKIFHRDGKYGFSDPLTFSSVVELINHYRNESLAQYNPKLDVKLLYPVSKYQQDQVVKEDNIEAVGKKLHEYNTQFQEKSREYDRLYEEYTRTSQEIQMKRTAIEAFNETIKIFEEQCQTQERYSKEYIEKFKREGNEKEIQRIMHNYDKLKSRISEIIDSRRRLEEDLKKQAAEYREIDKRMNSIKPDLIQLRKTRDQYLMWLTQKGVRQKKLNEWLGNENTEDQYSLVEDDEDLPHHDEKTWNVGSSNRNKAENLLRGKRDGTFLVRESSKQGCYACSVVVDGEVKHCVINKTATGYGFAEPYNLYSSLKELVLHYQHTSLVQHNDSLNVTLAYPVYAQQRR
T3 sequence (P42336 whole entry): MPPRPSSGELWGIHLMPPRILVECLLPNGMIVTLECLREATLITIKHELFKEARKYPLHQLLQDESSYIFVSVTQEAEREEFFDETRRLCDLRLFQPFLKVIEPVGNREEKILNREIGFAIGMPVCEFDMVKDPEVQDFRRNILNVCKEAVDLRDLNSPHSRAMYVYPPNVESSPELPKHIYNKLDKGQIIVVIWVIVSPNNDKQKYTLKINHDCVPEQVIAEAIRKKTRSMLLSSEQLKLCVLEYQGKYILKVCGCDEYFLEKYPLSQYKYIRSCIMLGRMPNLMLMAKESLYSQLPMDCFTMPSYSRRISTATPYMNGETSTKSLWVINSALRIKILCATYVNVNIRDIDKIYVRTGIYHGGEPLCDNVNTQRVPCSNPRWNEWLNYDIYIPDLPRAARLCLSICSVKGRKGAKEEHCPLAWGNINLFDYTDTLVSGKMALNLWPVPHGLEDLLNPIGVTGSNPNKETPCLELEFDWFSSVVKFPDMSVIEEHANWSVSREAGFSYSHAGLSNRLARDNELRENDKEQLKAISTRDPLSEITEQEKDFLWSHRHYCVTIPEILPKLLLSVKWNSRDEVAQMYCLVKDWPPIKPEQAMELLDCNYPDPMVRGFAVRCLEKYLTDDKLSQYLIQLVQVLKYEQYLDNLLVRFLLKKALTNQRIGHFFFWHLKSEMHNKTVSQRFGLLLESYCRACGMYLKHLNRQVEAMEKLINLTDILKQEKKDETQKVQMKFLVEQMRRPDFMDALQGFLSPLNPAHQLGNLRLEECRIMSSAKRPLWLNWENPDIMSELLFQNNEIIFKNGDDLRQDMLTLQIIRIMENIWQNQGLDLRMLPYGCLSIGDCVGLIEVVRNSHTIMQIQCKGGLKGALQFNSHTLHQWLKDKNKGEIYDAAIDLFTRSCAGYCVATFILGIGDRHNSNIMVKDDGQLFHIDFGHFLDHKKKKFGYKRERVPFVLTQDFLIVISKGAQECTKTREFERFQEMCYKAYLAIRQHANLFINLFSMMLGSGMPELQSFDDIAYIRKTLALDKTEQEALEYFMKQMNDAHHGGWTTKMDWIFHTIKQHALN
T3 sequence (P27986 whole entry partner): as the sequence (P27986 whole entry partner) above
T2 sequence (P42338 whole entry): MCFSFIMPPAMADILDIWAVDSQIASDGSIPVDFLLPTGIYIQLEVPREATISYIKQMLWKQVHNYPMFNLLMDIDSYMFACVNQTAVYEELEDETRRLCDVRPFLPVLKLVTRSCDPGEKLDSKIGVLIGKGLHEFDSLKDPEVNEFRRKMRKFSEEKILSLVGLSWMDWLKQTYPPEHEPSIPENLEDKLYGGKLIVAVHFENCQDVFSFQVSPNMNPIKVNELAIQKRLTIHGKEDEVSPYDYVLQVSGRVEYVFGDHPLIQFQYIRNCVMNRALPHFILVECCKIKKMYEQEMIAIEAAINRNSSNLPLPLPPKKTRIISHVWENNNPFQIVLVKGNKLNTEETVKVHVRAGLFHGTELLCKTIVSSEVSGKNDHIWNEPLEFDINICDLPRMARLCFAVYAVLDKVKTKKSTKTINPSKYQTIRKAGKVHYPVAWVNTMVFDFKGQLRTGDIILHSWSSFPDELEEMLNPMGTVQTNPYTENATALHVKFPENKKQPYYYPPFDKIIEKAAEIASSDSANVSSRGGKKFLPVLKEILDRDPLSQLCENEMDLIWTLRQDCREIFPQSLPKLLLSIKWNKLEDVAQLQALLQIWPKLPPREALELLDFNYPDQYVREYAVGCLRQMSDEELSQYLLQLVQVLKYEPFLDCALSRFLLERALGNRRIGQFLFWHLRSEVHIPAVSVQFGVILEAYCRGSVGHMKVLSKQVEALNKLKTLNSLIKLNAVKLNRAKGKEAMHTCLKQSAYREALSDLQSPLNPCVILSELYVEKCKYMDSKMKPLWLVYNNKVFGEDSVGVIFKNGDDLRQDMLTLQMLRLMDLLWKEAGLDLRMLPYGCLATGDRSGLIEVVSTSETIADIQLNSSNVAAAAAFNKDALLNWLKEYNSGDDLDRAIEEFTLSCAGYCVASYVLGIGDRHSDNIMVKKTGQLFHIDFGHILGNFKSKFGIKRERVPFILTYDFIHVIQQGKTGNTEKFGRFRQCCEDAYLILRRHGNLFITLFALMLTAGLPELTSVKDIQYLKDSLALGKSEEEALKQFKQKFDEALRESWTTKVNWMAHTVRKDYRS
T2 sequence (P27986 whole entry partner): as the sequence (P27986 whole entry partner) above
T1 sequence (P48736 whole entry): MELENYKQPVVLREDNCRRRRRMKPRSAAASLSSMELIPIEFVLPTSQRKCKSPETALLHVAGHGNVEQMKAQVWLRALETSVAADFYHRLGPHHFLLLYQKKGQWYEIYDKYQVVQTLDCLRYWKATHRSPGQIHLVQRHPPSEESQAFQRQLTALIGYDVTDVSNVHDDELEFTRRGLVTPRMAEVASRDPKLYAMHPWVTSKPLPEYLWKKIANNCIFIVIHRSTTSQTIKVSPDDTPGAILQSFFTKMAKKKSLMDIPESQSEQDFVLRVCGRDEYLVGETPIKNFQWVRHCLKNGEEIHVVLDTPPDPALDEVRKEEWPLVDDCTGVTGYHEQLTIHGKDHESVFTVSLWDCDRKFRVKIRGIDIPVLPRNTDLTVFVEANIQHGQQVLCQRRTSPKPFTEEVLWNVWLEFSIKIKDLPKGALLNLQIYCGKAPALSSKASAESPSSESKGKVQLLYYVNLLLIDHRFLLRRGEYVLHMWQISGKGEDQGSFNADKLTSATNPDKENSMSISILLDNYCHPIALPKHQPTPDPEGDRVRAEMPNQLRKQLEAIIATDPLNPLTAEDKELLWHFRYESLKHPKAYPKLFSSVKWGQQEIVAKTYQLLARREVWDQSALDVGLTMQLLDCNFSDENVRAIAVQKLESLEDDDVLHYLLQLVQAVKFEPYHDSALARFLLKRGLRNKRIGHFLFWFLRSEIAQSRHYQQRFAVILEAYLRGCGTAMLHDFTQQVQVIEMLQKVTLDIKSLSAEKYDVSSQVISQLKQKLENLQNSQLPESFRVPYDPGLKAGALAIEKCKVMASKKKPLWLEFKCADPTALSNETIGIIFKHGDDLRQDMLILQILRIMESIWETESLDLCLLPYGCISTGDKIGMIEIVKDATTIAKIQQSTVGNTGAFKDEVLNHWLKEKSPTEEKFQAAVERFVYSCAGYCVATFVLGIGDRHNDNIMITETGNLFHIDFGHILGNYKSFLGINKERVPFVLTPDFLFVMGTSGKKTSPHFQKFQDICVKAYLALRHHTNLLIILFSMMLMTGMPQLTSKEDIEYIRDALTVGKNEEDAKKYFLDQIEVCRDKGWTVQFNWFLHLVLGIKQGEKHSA

SMILES | p110 gamma Percent Inhibition (Human PI3K gamma) [%] | inhibition at 1.1 µM (Human PI3K beta) [%] | p110 alpha Percent Inhibition (Human PI3K alpha) [%] | inhibition at 1 µM (Human PI3K delta) [%] | inhibition at 1 µM (Human PI3K gamma) [%] | inhibition at 1.1 µM (Human PI3K alpha) [%]
CC(=O)Nc1cc(-c2cc(C(c3ccc(Cl)cc3)N3CCC[C@H]3CO)c(-c3nnc[nH]3)s2)ccn1 (single isomer, unassigned) [Compound 259] | 25 | 100 | 69 | 101 |  | 
CC(=O)Nc1cc(-c2cc(C(c3ccc(Cl)cc3)N3CCNCC3)c(-c3nnc[nH]3)s2)ccn1 (centres unmarked) [Compound 154] |  | 108 |  | 108 | 39 | 79
OC(c1cc(-c2ccncc2)sc1-c1nnc[nH]1)c1ccnc2ccccc12 (centres unmarked) [Compound 175] |  | 85 |  | 36 | 7 | 19
OC(c1ccc2ccccc2n1)c1cc(-c2ccncc2)sc1-c1nnc[nH]1 (centres unmarked) [Compound 171] |  | 106 |  | 99 | 60 | 59
N#Cc1ccc2ccc(Cc3nc(N4CCOCC4)sc3C(=O)O)cc2c1 [Compound 325] |  | 89 |  | 89 | 22 | 17
N#Cc1c(-c2ccncc2)sc(-c2nnc[nH]2)c1Cc1ccc2ccccc2c1 [Compound 148] |  | 98 |  | 69 | 34 | 41
O=C(O)c1sc(N2CCOCC2)nc1Cc1cc2ccccc2cc1F [Compound 314] |  | 109 |  | 104 | 42 | 42
CC(=O)Nc1cc(-c2cc(C(c3ccc(Cl)cc3)N3CCCC3)c(-c3nnc[nH]3)s2)ccn1 (centres unmarked) [Compound 230] |  | 93 |  | 102 | 29 | 57
CC(=O)Nc1cc(-c2cc([C@@H](c3ccc(Cl)cc3)N(C)C)c(-c3nnc[nH]3)s2)ccn1 (single isomer, unassigned) [Compound 204] |  | 101 |  | 90 | 25 | 70
CC(=O)Nc1cc(-c2cc(C(c3ccc(Cl)cc3)N3CCOCC3)c(-c3nnc[nH]3)s2)ccn1 (centres unmarked) [Compound 248] |  | 106 |  | 109 | 35 | 89
COc1cccc(F)c1C(O)c1cc(-c2ccncc2)sc1-c1nnc[nH]1 (centres unmarked) [Compound 239] |  | 68 |  | 41 | 27 | 30
CC(=O)Nc1cc(-c2cc(C(c3ccc(Cl)cc3)N3CCC(F)(F)CC3)c(-c3nnc[nH]3)s2)ccn1 (centres unmarked) [Compound 221] |  | 94 |  | 100 | 8 | 62
N#Cc1c(N2CCOCC2)sc(C(=O)O)c1C(CCO)c1ccc2ccccc2c1 (centres unmarked) [Compound 313] | 30 | 117 | 73 | 86 |  | 
OC(c1cc(-c2ccncc2)sc1-c1nnc[nH]1)c1cccc2nccnc12 (centres unmarked) [Compound 169] |  | 89 |  | 65 | 7 | 65
